Data taken from ChEMBL document CHEMBL1132880, “Novel arylpiperazines as selective alpha1-adrenergic receptor antagonists” (Bioorg Med Chem Lett, 2000).
pKi: −log10 of the molar value.

Experiments:
[1] = target: T1, Alpha-1D adrenergic receptor (Homo sapiens, UniProt P25100); assay: Binding affinity for human Alpha-1D adrenergic receptor expressed in COS cell membranes
T1 sequence (P25100 whole entry): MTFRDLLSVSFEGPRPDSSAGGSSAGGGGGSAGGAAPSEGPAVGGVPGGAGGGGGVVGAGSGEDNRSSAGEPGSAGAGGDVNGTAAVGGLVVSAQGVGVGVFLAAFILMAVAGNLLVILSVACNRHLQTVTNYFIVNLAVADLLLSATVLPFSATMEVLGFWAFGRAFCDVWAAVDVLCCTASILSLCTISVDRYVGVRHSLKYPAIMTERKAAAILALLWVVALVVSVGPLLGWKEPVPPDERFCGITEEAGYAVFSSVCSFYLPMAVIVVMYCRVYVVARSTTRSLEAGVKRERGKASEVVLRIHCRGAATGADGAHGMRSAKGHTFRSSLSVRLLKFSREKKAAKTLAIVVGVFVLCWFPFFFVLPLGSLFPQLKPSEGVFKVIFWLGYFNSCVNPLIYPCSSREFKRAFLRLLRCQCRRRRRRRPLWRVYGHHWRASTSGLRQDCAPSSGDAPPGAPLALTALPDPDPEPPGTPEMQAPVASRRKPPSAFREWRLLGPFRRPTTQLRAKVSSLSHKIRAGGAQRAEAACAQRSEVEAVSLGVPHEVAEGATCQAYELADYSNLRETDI

[2] = target: T2, Alpha-1B adrenergic receptor (Homo sapiens, UniProt P35368); assay: Binding affinity for human Alpha-1B adrenergic receptor expressed in COS cell membranes
T2 sequence (P35368 whole entry): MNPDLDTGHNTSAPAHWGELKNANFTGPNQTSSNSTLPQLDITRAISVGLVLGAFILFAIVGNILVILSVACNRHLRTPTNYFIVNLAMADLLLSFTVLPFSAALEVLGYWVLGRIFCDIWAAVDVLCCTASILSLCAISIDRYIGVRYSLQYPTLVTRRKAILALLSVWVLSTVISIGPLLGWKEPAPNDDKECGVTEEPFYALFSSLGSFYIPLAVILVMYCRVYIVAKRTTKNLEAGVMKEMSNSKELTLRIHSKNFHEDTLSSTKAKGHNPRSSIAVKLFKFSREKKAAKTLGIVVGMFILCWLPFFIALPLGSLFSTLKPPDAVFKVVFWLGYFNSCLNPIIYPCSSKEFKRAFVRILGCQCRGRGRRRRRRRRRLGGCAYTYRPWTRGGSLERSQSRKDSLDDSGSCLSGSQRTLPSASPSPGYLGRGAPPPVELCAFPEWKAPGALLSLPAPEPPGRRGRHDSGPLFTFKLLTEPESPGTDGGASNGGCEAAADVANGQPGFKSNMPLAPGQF

[3] = target: Alpha adrenergic receptor (1a and 1d) (Homo sapiens) (UniProt P35348+P25100); assay: Relative binding affinity for human adrenergic receptor alpha 1d and 1a; format: protein assay
[4] = target: T3, Alpha-1A adrenergic receptor (Homo sapiens, UniProt P35348); assay: Binding affinity for human Alpha-1A adrenergic receptor expressed in COS cell membranes
T3 sequence (P35348 whole entry): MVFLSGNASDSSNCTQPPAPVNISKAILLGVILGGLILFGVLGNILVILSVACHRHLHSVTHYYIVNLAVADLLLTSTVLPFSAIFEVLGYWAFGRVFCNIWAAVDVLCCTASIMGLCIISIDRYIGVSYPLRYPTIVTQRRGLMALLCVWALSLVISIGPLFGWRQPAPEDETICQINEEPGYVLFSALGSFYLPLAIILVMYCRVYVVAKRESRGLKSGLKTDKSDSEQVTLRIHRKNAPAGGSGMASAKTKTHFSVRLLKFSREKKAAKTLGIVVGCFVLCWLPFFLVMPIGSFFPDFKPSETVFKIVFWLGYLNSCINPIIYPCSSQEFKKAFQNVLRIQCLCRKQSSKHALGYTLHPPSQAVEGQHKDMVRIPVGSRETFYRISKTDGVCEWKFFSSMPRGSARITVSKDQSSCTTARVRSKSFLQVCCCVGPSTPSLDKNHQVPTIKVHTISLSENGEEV

[5] = target: Adrenergic receptors; alpha-1 A & B (Homo sapiens) (UniProt P35348+P35368); assay: Relative binding affinity for human adrenergic receptor alpha 1b and alpha 1a; format: protein assay
[6] = species: Rattus norvegicus; assay: pA2 data of Compound was evaluated for tissue contractions in isolated rat prostatic tissue strips.; format: functional; conditions: read-out: pA2 (converted)

| Compound | pKi [1] | pKi [2] | Ratio [3] | pKi [4] | Ratio [5] | Kb [6] [nM] |
| --- | --- | --- | --- | --- | --- | --- |
| CC(C)Oc1ccccc1N1CCN(CCOC(=O)CN2CCCCC2=O)CC1 | 6.97 | 5.65 | 3 | 7.42 | 59 |  |
| COc1ccccc1N1CCN(CCCNC(=O)CN2CCCCC2=O)CC1 | 5.00 | 5.00 | 102 | 7.01 | 102 |  |
| CCOC(=O)C1CCC(=O)N1CC(=O)NCCN1CCN(c2ccccc2OC(C)C)CC1 (stereo not drawn) | 6.59 | 4.58 | 13 | 7.70 | 1320 | 16.2 |
| CC(C)Oc1ccccc1N1CCN(CC(O)CC(=O)CN2CCCCC2=O)CC1 (stereo not drawn) | 6.60 | 5.00 | 9 | 7.55 | 556 |  |
| CC(C)Oc1ccccc1N1CCN(CCN(C)C(=O)CN2CCCCC2=O)CC1 | 6.19 | 5.00 | 12 | 7.28 | 187 |  |
| CC(C)Oc1ccccc1N1CCN(CC(=O)CC(=O)CN2CCCCC2=O)CC1 | 5.22 | 5.00 | 14 | 6.38 | 24 |  |
| CC(C)Oc1ccccc1N1CCN(C/C=C/C(=O)CN2CCCCC2=O)CC1 | 6.22 | 5.27 | 33 | 7.74 | 295 |  |

Now from value to molecule, other results behind:

| pKi [1] | pKi [2] | Ratio [3] | pKi [4] | Ratio [5] | Compound | Kb [6] [nM] |
| --- | --- | --- | --- | --- | --- | --- |
| 5.35 | 5.00 | 54 | 7.08 | 120 | CC(C)Oc1cc(F)ccc1N1CCN(CCNC(=O)CN2CCCCC2=O)CC1 |  |
| 7.10 | 5.00 | 121 | 9.18 | 15200 | CC(C)Oc1ccccc1N1CCN(CCCNC(=O)CN2CCCCC2=O)CC1 [RWJ-69736] |  |
| 6.30 | 5.45 | 28 | 7.74 | 196 | CC(C)Oc1ccccc1N1CCN(CCNC(=O)CN2CCCCCC2=O)CC1 [RWJ-68157] | 204 |
| 6.43 | 4.34 | 43 | 8.06 | 5300 | CC(C)Oc1ccccc1N1CCN(CCNC(=O)CN2CCCCC2=O)CC1 [RWJ-38063] | 31.6 |
| 5.27 | 5.00 | 41 | 6.89 | 77 | O=C(CN1CCCCC1=O)NCCN1CCN(c2ccc(F)cc2OCC(F)(F)F)CC1 |  |
